# Laboratory results from patent publication US20050113450A1, “Antibacterial agents” (priority 2002, published 2005).
# System: SA 9218
# Test: MIC by standard agar dilution method
# Assay type: cell-based
# Conditions: Mueller Hinton agar, 10^4 to 10^5 cells per spot, incubated overnight at 35° C., lowest concentration that inhibits visible growth
# Outline: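 Agar dilution: two-fold compound dilutions mixed into molten Mueller Hinton agar, spots of ~10^4–10^5 cells from 0.5 McFarland suspension diluted 1:20 in TSB. Incubated overnight at 35 °C; MIC is lowest concentration inhibiting visible growth.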
Structure (SMILES),MIC [µg/mL],SA 9218 MIC [µg/mL]
COc1cccc(COc2ccc(C(=O)Nc3ccc(Br)cc3C(=O)O)cc2)c1,8,
N#Cc1cccc(C(=NO)c2ccc(C(=O)Nc3ccc(Cl)cc3C(=O)O)cc2)c1,8,
O=C(Nc1ccc(Br)cc1C(=O)O)c1ccc(F)cc1,64,
O=C(Nc1ccc(Br)cc1C(=O)O)c1cccc(NS(=O)(=O)c2ccc(OC(F)(F)F)cc2)c1 [PHA-708995],0.125,
O=C(Nc1ccc(Br)cc1C(=O)O)c1ccc(OCc2ccccc2)cc1,16,
Cc1ccc(C(=O)Nc2ccc(Br)cc2C(=O)O)cc1S(=O)(=O)N1CCc2ccc(Cl)cc21,1,
O=C1CCC(COc2cccc(C(=O)Nc3ccc(Br)cc3C(=O)O)c2)N1 (stereo not drawn) [PHA-571280],,>128
CS(=O)(=O)c1cccc(C(=O)c2cccc(C(=O)Nc3ccc(Cl)cc3C(=O)O)c2)c1,16,
CS(=O)(=O)c1ccc(C(=O)Nc2ccc(Br)cc2C(=O)O)cc1,64,
COc1ccc2ccn(S(=O)(=O)c3cccc(C(=O)Nc4ccc(C#N)cc4C(=O)O)c3)c2c1 [PHA-568424],1,
O=C(Nc1ccc(Br)cc1C(=O)O)c1cccc(OCc2ccncc2)c1,> 128,
O=C(Nc1ccc(Cl)cc1C(=O)O)c1ccc(I)cc1,2,
CN1C(=O)c2ccc(C(=O)Nc3ccc(Br)cc3C(=O)O)cc2C1=O,128,
COC(=O)CCCC(=O)c1ccc(NC(=O)c2cccc(S(=O)(=O)N3CCc4ccc(Cl)cc43)c2)c(C(=O)O)c1,64,
COc1ccc(C(=O)Nc2ccc(C#N)cc2C(=O)O)cc1,16,
O=C(Nc1ccc(-c2cccc(C(F)(F)F)c2)cc1C(=O)O)c1cccc(S(=O)(=O)N2CCc3cc(Cl)ccc32)c1 [PHA-563284],2,
O=C(Nc1ccccc1)Nc1ccc(C(=O)Nc2ccc(Br)cc2C(=O)O)cc1 [PHA-713393],> 128,
O=C(O)c1cc(Br)ccc1NC(=O)c1cccc2ccccc12,32,
O=C(Nc1ccc(Br)cc1C(=O)O)c1ccc(NS(=O)(=O)c2ccc(Cl)c(Cl)c2)cc1 [PHA-708997],8,
O=C(Nc1ccc(Br)cc1C(=O)O)c1cccc(OCc2ccccc2)c1 [PHA-501685],,2
CC1CC(C)CN(S(=O)(=O)c2ccc(C(=O)Nc3ccc(C#N)cc3C(=O)O)cc2)C1 (stereo not drawn) [PHA-571234],8,
CCCCCOc1ccc(C(=O)Nc2ccc(C#N)cc2C(=O)O)cc1,4,

Structure (SMILES),MIC [µg/mL],SA 9218 MIC [µg/mL]
N#Cc1ccc(NC(=O)c2cccc(S(=O)(=O)N3CCN(c4ncccn4)CC3)c2)c(C(=O)O)c1 [PHA-571170],64,
O=C(Nc1ccc(Br)cc1C(=O)O)c1cccc(OCc2cccc(C(F)(F)F)c2)c1,64,
COc1cc(COc2cccc(C(=O)Nc3ccc(Br)cc3C(=O)O)c2)ccc1[N+](=O)[O-] [PHA-571282],16,
COc1ccc(C(=O)Nc2ccc(Cl)cc2C(=O)O)cc1[N+](=O)[O-] [PNU-291408],,32
CS(=O)(=O)c1cccc(C(=O)Nc2ccc(Br)cc2C(=O)O)c1 [PHA-513541],64,
O=C(COc1ccc(Cl)cc1)c1ccc(C(=O)Nc2ccc(Cl)cc2C(=O)O)cc1,4,
O=C(Nc1ccc(Br)cc1C(=O)O)c1ccc(OCC2CCCC2)cc1,> 128,
COc1ccc(C(=O)Nc2ccc(C#N)cc2C(=O)O)cc1OC,64,
CS(=O)(=O)c1cccc(C(=NO)c2ccc(C(=O)Nc3ccc(Cl)cc3C(=O)O)cc2)c1,16,
COc1ccc(C(=O)c2ccc(C(=O)Nc3ccc(Cl)cc3C(=O)O)cc2)cc1,2,
CC(C)N(Cc1ccccc1)S(=O)(=O)c1ccc(C(=O)Nc2ccc(C#N)cc2C(=O)O)cc1 [PHA-571205],32,
O=C(Nc1ccc(Br)cc1C(=O)O)c1ccc(OCCOc2ccccc2)cc1,128,
Cl.N#Cc1ccc(NC(=O)c2cccc(SCc3ccncc3)c2)c(C(=O)O)c1 [PHA-569044A],0.5,
CCN(Cc1ccncc1)S(=O)(=O)c1cccc(C(=O)Nc2ccc(Br)cc2C(=O)O)c1,32,
O=C(Nc1ccc(Br)cc1C(=O)O)c1ccc(NC(=S)Nc2ccc([N+](=O)[O-])cc2)cc1 [PHA-713403],64,
COc1ccc2c(ccn2S(=O)(=O)c2cccc(C(=O)Nc3ccc(C#N)cc3C(=O)O)c2)c1 [PHA-543139],0.125,
N#Cc1ccc(NC(=O)c2ccc(S(=O)(=O)N3CCN(c4ccc([N+](=O)[O-])cc4)CC3)cc2)c(C(=O)O)c1 [PHA-571199],64,
N#Cc1ccc(NC(=O)c2cc(Br)cc(S(=O)(=O)N3CCc4ccccc43)c2)c(C(=O)O)c1 [PHA-630965],0.25,
Cc1noc(C)c1-c1ccc(NC(=O)c2cccc(S(=O)(=O)N3CCc4cc(Cl)ccc43)c2)c(C(=O)O)c1 [PHA-569977],16,
O=C(Nc1ccc(Cl)cc1C(=O)O)c1cccc(C(=O)c2ccco2)c1,8,
CCCCN(CC)S(=O)(=O)c1cccc(C(=O)Nc2ccc(C#N)cc2C(=O)O)c1 [PHA-571197],16,
O=C(Nc1ccc(Cl)cc1C(=O)O)c1cccc(C(=O)C2CC2)c1 [PHA-656890],16,

Structure (SMILES),MIC [µg/mL],SA 9218 MIC [µg/mL]
CN(C)c1ccc(C(=O)Nc2ccc(C#N)cc2C(=O)O)cc1 [PHA-571157],32,
O=C(Nc1ccc(Br)cc1C(=O)O)c1ccc(OCCN2C(=O)CCC2=O)cc1,> 128,
O=C(Nc1ccc(Br)cc1C(=O)O)c1cccc(S(=O)(=O)n2ccc3cccnc32)c1 [PHA-630331],2,
N#Cc1ccc(NC(=O)c2ccc(S(=O)(=O)NC3CCc4ccccc43)cc2)c(C(=O)O)c1 (stereo not drawn) [PHA-656866],> 128,
O=C(Nc1ccc(Cl)cc1C(=O)O)c1ccc(C(=O)c2ccco2)cc1,4,
O=C(NCCOc1ccc(C(=O)Nc2ccc(Br)cc2C(=O)O)cc1)OCc1ccccc1,64,
O=C(Nc1ccc(Br)cc1C(=O)O)c1cccc(C(=NO)c2ccccc2)c1 [PHA-524545],,0.25
O=C(O)c1cc(Br)ccc1NC(=O)c1cccc2c1C(=O)c1ccccc1-2,> 128,
O=C(Nc1ccc(Cl)cc1C(=O)O)c1cc(Br)cc(S(=O)(=O)N2CCOCC2)c1 [PHA-662250],1,
O=C(Nc1ccc(Br)cc1C(=O)O)c1cccc(NC(=S)Nc2ccccc2C(F)(F)F)c1 [PHA-713405],128,
COc1ccc(-c2ccc(NC(=O)c3cccc(S(=O)(=O)N4CCOCC4)c3)c(C(=O)O)c2)cc1 [PHA-610941],> 128,
O=C(Nc1ccc(Br)cc1C(=O)O)c1ccc2c(c1)OCO2,16,
Cc1cccc(C(=O)Nc2ccc(Br)cc2C(=O)O)c1,64,
COC(=O)c1cccc(C(=O)c2cccc(C(=O)Nc3ccc(Cl)cc3C(=O)O)c2)c1 [PHA-656886],16,
N#Cc1ccc(NC(=O)c2cccc(S(=O)(=O)N3CCCC3CO)c2)c(C(=O)O)c1 (stereo not drawn) [PHA-656863],8,
O=C(Nc1ccc(Cl)cc1C(=O)O)c1cccc(C(=O)c2ccc3ccccc3n2)c1 [PHA-656880],16,
N#Cc1ccc(NC(=S)c2cccc(S(=O)(=O)N3CCCC3)c2)c(C(=O)O)c1 [PHA-662431],1,
CC(C)N(Cc1ccccc1)S(=O)(=O)c1cccc(C(=O)Nc2ccc(C#N)cc2C(=O)O)c1 [PHA-571216],32,
O=C(Nc1ccc(-c2cccc([N+](=O)[O-])c2)cc1C(=O)O)c1cccc(S(=O)(=O)N2CCc3cc(Cl)ccc32)c1 [PHA-563275],2,
CCC1CCCCN1S(=O)(=O)c1cccc(C(=O)Nc2ccc(C#N)cc2C(=O)O)c1 (stereo not drawn) [PHA-571263],16,
O=C(Nc1ccc(Br)cc1C(=O)O)c1ccc(S(=O)(=O)Nc2ccc3c(c2)OCCO3)cc1,16,
O=C(Nc1ccc(Cl)cc1C(=O)O)c1ccc(SCc2ccccc2)c([N+](=O)[O-])c1 [PNU-283604],4,

Structure (SMILES),MIC [µg/mL],SA 9218 MIC [µg/mL]
O=C(Nc1ccc(Br)cc1C(=O)O)c1cccc(S(=O)(=O)n2ccc3ccccc32)c1 [PHA-516116],0.5,
COC(=O)c1ccc(C(=O)Nc2ccc(Br)cc2C(=O)O)cc1,32,
O=C(Nc1ccc(Br)cc1C(=O)O)c1cccc(S(=O)(=O)N2CCCC2)c1 [PHA-568378],2,
O=C(Nc1ccc(Br)cc1C(=O)O)c1ccc(OCc2cccc([N+](=O)[O-])c2)cc1,16,
COc1ccc(C(=O)Nc2ccc(Br)cc2C(=O)O)cc1OC,128,
CC(C)Oc1ccc(C(=O)Nc2ccc(Br)cc2C(=O)O)cc1,64,
CC(C)(C)CCOc1ccc(C(=O)Nc2ccc(Br)cc2C(=O)O)cc1,64,
O=C(Nc1ccc(Br)cc1C(=O)O)c1ccc(F)c(F)c1,32,
CO/N=C/c1ccc(NC(=O)c2cccc(S(=O)(=O)N3CCOCC3)c2)c(C(=O)O)c1 [PHA-679759],> 128,
CCCNC(c1cccc(C(=O)Nc2ccc(Cl)cc2C(=O)O)c1)c1cccc(S(C)(=O)=O)c1 (stereo not drawn),32,
O=C(Nc1ccc(Cl)cc1C(=O)O)c1cccc(S(=O)(=O)N2CCOCC2)c1 [PHA-571395],4,
Cc1csc(-c2ccc(NC(=O)c3cccc(S(=O)(=O)N4CCc5cc(Cl)ccc54)c3)c(C(=O)O)c2)c1 [PHA-563277],2,
N#Cc1ccc(NC(=O)c2cccc(S(=O)(=O)n3ccc4ccccc43)c2)c(C(=O)O)c1 [PHA-543141],0.125,
O=C(Nc1ccc(Br)cc1C(=O)O)c1ccc(OCCc2ccccn2)cc1,128,
COc1cc2c(cc1OC)CN(S(=O)(=O)c1ccc(C(=O)Nc3ccc(C#N)cc3C(=O)O)cc1)CC2 [PHA-571198],> 128,
CN(CCC#N)S(=O)(=O)c1ccc(C(=O)Nc2ccc(C#N)cc2C(=O)O)cc1 [PHA-571232],> 128,
O=C(Nc1ccc(Br)cc1C(=O)O)c1cccc(SCc2ccncc2)c1 [PHA-502339],2,
N#Cc1ccc(NC(=O)c2cccc(SCc3ccccc3)c2)c(C(=O)O)c1 [PHA-630368],0.5,
Cc1c(C(=O)Nc2ccc(C#N)cc2C(=O)O)cccc1S(=O)(=O)N1CCc2cc(Cl)ccc21 [PHA-728844],0.25,
CCN(Cc1ccncc1)S(=O)(=O)c1ccc(C)c(C(=O)Nc2ccc(Br)cc2C(=O)O)c1,> 128,
CC(=O)c1cccc(NC(=S)Nc2cccc(C(=O)Nc3ccc(Br)cc3C(=O)O)c2)c1 [PHA-713408],64,
